± gives the standard deviation of the reports.
Row | Structure (SMILES) | glass transition temperature
1 | *c1cccc(Oc2ccc(P(=O)(c3ccccc3)c3ccc(Oc4ccc(N5C(=O)c6ccc(-c7ccc8c(c7)C(=O)N(*)C8=O)cc6C5=O)cc4)cc3)cc2)c1 (repeat unit) | 241.00 °C
2 | *c1ccc2c(c1)C(=O)N(c1ccc(-c3ccc(N4C(=O)c5ccc(C(*)(C(F)(F)F)C(F)(F)F)cc5C4=O)cc3-c3cc(C(F)(F)F)cc(C(F)(F)F)c3)c(-c3cc(C(F)(F)F)cc(C(F)(F)F)c3)c1)C2=O (repeat unit) | 263.00 °C
3 | *c1ccc2c(c1)C(=O)N(c1cc(N3C(=O)c4ccc(S(*)(=O)=O)cc4C3=O)cc(C(F)(F)F)c1)C2=O (repeat unit) | 310.00 °C
4 | *c1ccc2c(c1)C(=O)N(c1cc(C(F)(F)F)cc(N3C(=O)c4ccc(C(*)(C(F)(F)F)C(F)(F)F)cc4C3=O)c1OC(c1c(F)c(F)c(F)c(F)c1F)c1c(F)c(F)c(F)c(F)c1F)C2=O (repeat unit) | 321.70 °C
5 | *c1cc(N2C(=O)c3ccc(-c4ccc5c(c4)C(=O)N(*)C5=O)cc3C2=O)ccc1OCC(F)(F)C(F)(F)C(F)(F)F (repeat unit) | 300.00 °C
6 | *c1ccc2c(c1)C(=O)N(c1ccc(-c3ccc(N4C(=O)c5ccc(C(*)(C(F)(F)F)C(F)(F)F)cc5C4=O)cc3C#N)c(C#N)c1)C2=O (repeat unit) | 331.00 °C
7 | *c1ccc(Oc2ccc(Oc3ccc(-n4c(=O)c5ccc6c(=O)n(*)c(=O)c6c5c4=O)cc3)cc2)cc1 (repeat unit) | 292.00 °C
8 | *c1ccc(-c2ccc(N3C(=O)c4cc5c(cc4C3=O)C(C(F)(F)F)(C(F)(F)F)c3cc4c(cc3O5)C(=O)N(*)C4=O)cc2OC(C)(F)F)c(OC(C)(F)F)c1 (repeat unit) | 363.00 °C
9 | *c1cc(N2C(=O)c3ccc(-c4ccc5c(c4)C(=O)N(*)C5=O)cc3C2=O)ccc1OCC(F)(F)C(F)(F)C(F)(F)C(F)(F)C(F)(F)C(F)(F)C(F)(F)F (repeat unit) | 250.00 °C
10 | *c1ccc2c(c1)C(=O)N(c1ccc(OCC(F)(F)C(F)(F)C(F)(F)C(F)(F)C(F)(F)C(F)(F)C(F)(F)C(F)(F)C(F)(F)C(F)(F)F)c(N3C(=O)c4ccc(C(*)(C(F)(F)F)C(F)(F)F)cc4C3=O)c1)C2=O (repeat unit) | 189.00 °C
11 | *C(=O)c1cccc(Cc2ccc3c(c2)C(=O)N(c2cc(N4C(=O)c5ccc(*)cc5C4=O)cc(C(F)(F)F)c2)C3=O)c1 (repeat unit) | 253.00 °C
12 | *c1cc(N2C(=O)c3ccc(-c4ccc5c(c4)C(=O)N(*)C5=O)cc3C2=O)ccc1OCC(F)(F)C(F)(F)C(F)(F)C(F)(F)C(F)(F)C(F)(F)C(F)(F)C(F)(F)C(F)(F)C(F)(F)F (repeat unit) | 230.00 °C
13 | *C1=C(Cl)C(=O)N(c2ccc(Cc3ccc(N4C(=O)C(Cl)=C(Oc5ccc(*)cc5)C4=O)cc3)cc2)C1=O (repeat unit) | 192.00 °C
14 | *c1ccc(P(=O)(c2ccccc2)c2ccc(-n3c(=O)c4cc5c(=O)n(*)c(=O)c5cc4c3=O)cc2)cc1 (repeat unit) | 425.00 °C
15 | *c1ccc(-c2ccc(N3C(=O)c4ccc(-c5ccc6c(c5)C(=O)N(*)C6=O)cc4C3=O)cc2OC(F)(F)F)c(OC(F)(F)F)c1 (repeat unit) | 335.00 °C
16 | *Sc1ccc2c(c1)C(=O)N(c1ccc(Oc3ccc4ccccc4c3-c3c(Oc4ccc(N5C(=O)c6ccc(*)cc6C5=O)cc4C(F)(F)F)ccc4ccccc34)c(C(F)(F)F)c1)C2=O (repeat unit) | 273.00 °C
17 | *C(=O)c1ccc2c(c1)C(=O)N(c1ccc(C)c(N3C(=O)c4ccc(*)cc4C3=O)c1C)C2=O (repeat unit) | 384.00 °C
18 | *c1ccc2c(c1)C(=O)N(c1cc(N3C(=O)c4ccc(*)cc4C3=O)cc(C(F)(F)F)c1)C2=O (repeat unit) | 329.00 °C

Now from value to compound:

Row | glass transition temperature | Structure (SMILES)
19 | 252.00 °C | *C(=O)c1ccc2c(c1)C(=O)N(c1ccc(Oc3cccc(N4C(=O)c5ccc(*)cc5C4=O)c3)cc1)C2=O (repeat unit)
20 | 209.00 °C | *Oc1cccc(Sc2ccc(Oc3ccc4c(c3)C(=O)N(c3cccc(N5C(=O)c6ccc(*)cc6C5=O)c3)C4=O)cc2)c1 (repeat unit)
21 | 178.00 °C | *Oc1cccc(C(C)(C)c2ccc(Oc3ccc4c(c3)C(=O)N(c3ccc(Oc5cccc(Oc6ccc(N7C(=O)c8ccc(*)cc8C7=O)cc6)c5)cc3)C4=O)cc2)c1 (repeat unit)
22 | 239.00 ± 4 °C | *Oc1ccc2c(c1)C(=O)N(c1cccc(C(=O)c3cccc(N4C(=O)c5ccc(*)cc5C4=O)c3)c1)C2=O (repeat unit)
23 | 267.50 ± 8.4 °C | *Sc1ccc2c(c1)C(=O)N(c1ccc(Oc3ccc(N4C(=O)c5cccc(*)c5C4=O)cc3)cc1)C2=O (repeat unit)
24 | 234.00 °C | *Oc1cccc2c1C(=O)N(c1cccc(C(=O)c3cccc(N4C(=O)c5cccc(*)c5C4=O)c3)c1)C2=O (repeat unit)
25 | 227.00 °C | *Oc1cccc(Oc2ccc(Oc3ccc4c(c3)C(=O)N(c3cccc(N5C(=O)c6ccc(*)cc6C5=O)c3)C4=O)cc2)c1 (repeat unit)
26 | 269.00 °C | *Oc1ccc2c(c1)C(=O)N(c1ccc(Sc3ccc(N4C(=O)c5ccc(*)cc5C4=O)cc3)cc1)C2=O (repeat unit)
27 | 250.00 °C | *Sc1cccc2c1C(=O)N(c1ccc(Oc3ccc(Oc4ccc(N5C(=O)c6cccc(*)c6C5=O)cc4)cc3)cc1)C2=O (repeat unit)
28 | 287.80 °C | *C(=O)Nc1ccc2ccccc2c1-c1c(NC(=O)c2ccc3c(c2)C(=O)N(c2ccc(Oc4ccc(N5C(=O)c6ccc(*)cc6C5=O)cc4)cc2)C3=O)ccc2ccccc12 (repeat unit)
29 | 230.00 °C | *Oc1cccc(Sc2ccc(Oc3cccc4c3C(=O)N(c3ccc(Oc5cccc(Oc6ccc(N7C(=O)c8cccc(*)c8C7=O)cc6)c5)cc3)C4=O)cc2)c1 (repeat unit)
30 | 252.00 °C | *Oc1cccc(C(=O)c2ccc(Oc3cccc4c3C(=O)N(c3ccc(Oc5ccc(N6C(=O)c7cccc(*)c7C6=O)cc5)cc3)C4=O)cc2)c1 (repeat unit)
31 | 184.00 °C | *Oc1cccc(Oc2ccc(Oc3ccc4c(c3)C(=O)N(c3ccc(Oc5cccc(Oc6ccc(N7C(=O)c8ccc(*)cc8C7=O)cc6)c5)cc3)C4=O)cc2)c1 (repeat unit)
32 | 235.00 °C | *Oc1cccc(C(C)(C)c2ccc(Oc3cccc4c3C(=O)N(c3ccc(Oc5ccc(N6C(=O)c7cccc(*)c7C6=O)cc5)cc3)C4=O)cc2)c1 (repeat unit)

Remark: another data set of the same source

Row | glass transition temperature | Structure (SMILES)
33 | 5.00 °C | *c1cc(CCCCCCCCCCCCCC)c(-c2sc(-c3cc4sc(*)cc4s3)cc2CCCCCCCCCCCCCC)s1 (repeat unit)
34 | 16.00 °C | *c1ccc2c(c1)C(CCCCCCCCCCCC)(CCCCCCCCCCCC)c1cc(*)ccc1-2 (repeat unit)
35 | 117.00 °C | *c1ccc(-c2ccc(OCCCCCC)c(-c3cc(*)ccc3OCCCCCC)c2)cc1 (repeat unit)
36 | 113.00 °C | *C=Cc1cc(OC)c(C=Cc2cc(OC)c(*)cc2OC)cc1OCC(CC)CCCC (repeat unit)
37 | 140.00 °C | *c1ccc(N(c2ccc(-c3ccc4c(c3)C(CCCCCCCC)(CCCCCCCC)c3cc(*)ccc3-4)cc2)c2ccc(C(C)CC)cc2)cc1 (repeat unit)
38 | 79.00 °C | *c1ccc2c(c1)C(CCCCCCCC)(CCCCCCCC)c1cc(-c3sc(-c4ccc(-c5cc(CCCCCC)c(*)s5)c5nsnc45)cc3CCCCCC)ccc1-2 (repeat unit)
39 | 40.00 °C | *c1cc2c(OCC(CC)CCCC)c3sc(-c4sc(*)c5c(F)c(C(=O)OCC(CC)CCCC)sc45)cc3c(OCC(CC)CCCC)c2s1 (repeat unit)
40 | 74.00 °C | *c1ccc(-c2ccc(-c3cc4c5c(c(*)cc6c5c3C(=O)N(CC(CCCCCCCC)CCCCCCCCCC)C6=O)C(=O)N(CC(CCCCCCCC)CCCCCCCCCC)C4=O)s2)s1 (repeat unit)
41 | 28.00 °C | *c1ccc(-c2sc(-c3c(F)c(F)c(-c4cc(CC(CCCCCCCC)CCCCCCCCCC)c(-c5ccc(*)s5)s4)c4nsnc34)cc2CC(CCCCCCCC)CCCCCCCCCC)s1 (repeat unit)
42 | 87.00 °C | *c1ccc(-c2ccc(OCCCCCCCC)c(-c3cc(*)ccc3OCCCCCCCC)c2)cc1 (repeat unit)

Remark: another data set of the same source

Row | Structure (SMILES) | glass transition temperature
43 | *CC(*)C(=O)OC(C)CCCCC (repeat unit) [Poly(2-heptyl acrylate) ] | -39 ± 1.4 °C
44 | *CC(*)(C)C(=O)OCC(CC)CC (repeat unit) [Poly(2-ethylbutyl methacrylate) ] | 10.4 ± 0.7 °C
45 | *Oc1ccc(Oc2ccc(Oc3ccc4c(c3)C(=O)N(CCCCCCN3C(=O)c5ccc(*)cc5C3=O)C4=O)cc2)cc1 (repeat unit) [Polyetherimide 1 ] | 126.4 ± 2.1 °C
46 | *CC(*)OC(=O)CCC (repeat unit) [Poly(vinyl butyrate) ] | 2 ± 4.2 °C
47 | *c1nc(C(F)(F)F)nc(C(F)(OC(F)(F)C(F)(F)C(F)(F)C(F)(F)C(F)(F)C(F)(F)OC(*)(F)C(F)(F)F)C(F)(F)F)n1 (repeat unit) [Perfluoropolymer 1] | -13.6 ± 0.7 °C
